Source: ChEMBL document CHEMBL1201862, “PubChem BioAssay data set” (2004)
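Following 48 hours of exposure in 96-well plates, responses at five concentrations were used to interpolate endpoints linearly. GI50 is the concentration that inhibits growth by half.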 The source made the active and inactive calls. Rule as the data show it: active = GI50 up to about 1.1 µM and inactive = higher.

Experiments:
Assay in all cases: inhibition of tumour cell growth, NCI panel, 48 h
SK-OV-3 = test system: SK-OV-3
A498 = test system: A498
UO-31 = test system: UO-31
A549 = test system: A549
NCI-H23 = test system: NCI-H23
LOX IMVI = test system: LOX IMVI
MDA-MB-231 = test system: MDA-MB-231
SK-MEL-5 = test system: SK-MEL-5
OVCAR-5 = test system: OVCAR-5
SK-MEL-2 = test system: SK-MEL-2
SR = test system: SR
Hs-578T = test system: Hs-578T
K562 = test system: K562
NCI-H460 = test system: NCI-H460
CCRF-CEM = test system: CCRF-CEM
COLO 205 = test system: COLO 205
PC-3 = test system: PC-3
SNB-75 = test system: SNB-75
HCC 2998 = test system: HCC 2998
OVCAR-3 = test system: OVCAR-3
MDA-N = test system: MDA-N
MOLT-4 = test system: MOLT-4
ACHN = test system: ACHN
UACC-62 = test system: UACC-62
Malme-3M = test system: Malme-3M
U-251 = test system: U-251
HOP-92 = test system: HOP-92
CAKI-1 = test system: CAKI-1
EKVX = test system: EKVX
SN12C = test system: SN12C
SF-539 = test system: SF-539
OVCAR-4 = test system: OVCAR-4
UACC-257 = test system: UACC-257
RXF 393 = test system: RXF 393
M14 = test system: M14
IGROV-1 = test system: IGROV-1
SF-295 = test system: SF-295
786-0 = test system: 786-0
DU-145 = test system: DU-145
SF-268 = test system: SF-268
MCF7 = test system: MCF7
KM12 = test system: KM12
BT-549 = test system: BT-549
OVCAR-8 = test system: OVCAR-8
HCT-15 = test system: HCT-15
NCI-H522 = test system: NCI-H522
SW-620 = test system: SW-620
SK-MEL-28 = test system: SK-MEL-28
SNB-19 = test system: SNB-19
HCT-116 = test system: HCT-116
NCI/ADR-RES = test system: NCI/ADR-RES
TK-10 = test system: TK-10
MDA-MB-435 = test system: MDA-MB-435
HOP-62 = test system: HOP-62
HT-29 = test system: HT-29
T47D = test system: T47D
HL-60 = test system: HL-60
NCI-H226 = test system: NCI-H226

`COc1cc(NP(=O)(Oc2ccccc2)Oc2ccccc2)ccc1Nc1c2ccccc2nc2c1[nH]c1ccccc12` was tested, and the GI50 (SK-OV-3) was 1.88 µM (inactive), the GI50 (A498) was 0.269 µM (active) and the GI50 (UO-31) was 0.617 µM (active). The GI50 (A549) was 0.16 µM (active), the GI50 (NCI-H23) was 0.585 µM (active) and the GI50 (LOX IMVI) was 0.598 µM (active). The GI50 (MDA-MB-231) was 4.68 µM (inactive), the GI50 (SK-MEL-5) was 1.22 µM (inactive) and the GI50 (OVCAR-5) was 10.5 µM (inactive). The GI50 (SK-MEL-2) was 7.24 µM (inactive), the GI50 (SR) was < 0.0158 µM (active) and the GI50 (Hs-578T) was 17.1 µM (inactive). The GI50 (K562) was 1.62 µM (inactive), the GI50 (NCI-H460) was 0.0226 µM (active) and the GI50 (CCRF-CEM) was 0.183 µM (active). The GI50 (COLO 205) was 2.81 µM (inactive), the GI50 (PC-3) was 4.41 µM (inactive) and the GI50 (SNB-75) was 0.766 µM (active). The GI50 (HCC 2998) was 4.36 µM (inactive), the GI50 (OVCAR-3) was 2.08 µM (inactive) and the GI50 (MDA-N) was 2.77 µM (inactive). The GI50 (MOLT-4) was 0.0147 µM (active), the GI50 (ACHN) was 0.221 µM (active) and the GI50 (UACC-62) was 2.4 µM (inactive). For the same compound, the GI50 (Malme-3M) was 4.46 µM (inactive), the GI50 (U-251) was 0.524 µM (active) and the GI50 (HOP-92) was 0.933 µM (active). For the same compound, the GI50 (CAKI-1) was 0.261 µM (active), the GI50 (EKVX) was 9.71 µM (inactive) and the GI50 (SN12C) was 0.327 µM (active). The GI50 (SF-539) was 0.36 µM (active), the GI50 (OVCAR-4) was 3.22 µM (inactive) and the GI50 (UACC-257) was 7.71 µM (inactive). For the same compound, the GI50 (RXF 393) was 2.46 µM (inactive), the GI50 (M14) was 0.891 µM (active) and the GI50 (IGROV-1) was 0.0923 µM (active). For the same compound, the GI50 (SF-295) was 0.344 µM (active), the GI50 (786-0) was 0.278 µM (active) and the GI50 (DU-145) was 0.286 µM (active). For the same compound, the GI50 (SF-268) was 6.52 µM (inactive), the GI50 (MCF7) was 0.092 µM (active) and the GI50 (KM12) was 2.62 µM (inactive). The GI50 (BT-549) was 5.51 µM (inactive), the GI50 (OVCAR-8) was 1.23 µM (inactive) and the GI50 (HCT-15) was 1.63 µM. The GI50 (NCI-H522) was 1.6 µM (inactive), the GI50 (SW-620) was 1.22 µM (inactive) and the GI50 (SK-MEL-28) was 16.2 µM (inactive). The GI50 (SNB-19) was 0.755 µM (active), the GI50 (HCT-116) was 3.21 µM (inactive) and the GI50 (NCI/ADR-RES) was 1.65 µM (inactive). The GI50 (TK-10) was 3.01 µM (inactive), the GI50 (MDA-MB-435) was 3.11 µM (inactive) and the GI50 (HOP-62) was 0.359 µM (active). For the same compound, the GI50 (HT-29) was 0.953 µM (active) and the GI50 (T47D) was 0.867 µM (active).
In the case of `COC(=O)C1=C(O)C(C(=O)OC)[C@@]2(O)[C@@H](C(=O)OC)C(c3ccc(OC(=O)/C(=C/c4ccccc4)c4ccccc4)cc3)C[C@@H]1[C@@H]2C(=O)OC` (stereo partly drawn), the GI50 (SK-OV-3) is reported as > 100 µM (inactive), the GI50 (A498) is reported as 40.8 µM (inactive) and the GI50 (UO-31) is reported as 10.9 µM (inactive). For the same compound, the GI50 (A549) was 69.2 µM (inactive), the GI50 (NCI-H23) was > 100 µM (inactive) and the GI50 (LOX IMVI) was 4.71 µM (inactive). The GI50 (MDA-MB-231) was 23.9 µM (inactive), the GI50 (SK-MEL-5) was 26.8 µM (inactive) and the GI50 (OVCAR-5) was 80.4 µM (inactive). For the same compound, the GI50 (SK-MEL-2) was 14.9 µM (inactive), the GI50 (SR) was 6.73 µM (inactive) and the GI50 (Hs-578T) was 27.7 µM (inactive). The GI50 (K562) was 9.25 µM (inactive), the GI50 (NCI-H460) was 5.21 µM (inactive) and the GI50 (CCRF-CEM) was 4.9 µM (inactive). The GI50 (COLO 205) was 40 µM (inactive), the GI50 (PC-3) was 32.5 µM (inactive) and the GI50 (SNB-75) was 12.1 µM (inactive). The GI50 (OVCAR-3) was 35.6 µM (inactive), the GI50 (MDA-N) was 6.35 µM (inactive) and the GI50 (MOLT-4) was 3.72 µM (inactive). For the same compound, the GI50 (ACHN) was 19.7 µM (inactive), the GI50 (UACC-62) was 3.47 µM (inactive) and the GI50 (Malme-3M) was > 100 µM (inactive). For the same compound, the GI50 (U-251) was 11.2 µM (inactive), the GI50 (HOP-92) was 14.4 µM (inactive) and the GI50 (CAKI-1) was 11.9 µM (inactive). The GI50 (EKVX) was 64.6 µM (inactive), the GI50 (HL-60) was 17.4 µM (inactive) and the GI50 (SN12C) was 30.8 µM (inactive). The GI50 (SF-539) was 2.46 µM (inactive), the GI50 (OVCAR-4) was 16.9 µM (inactive) and the GI50 (UACC-257) was 18.9 µM (inactive). The GI50 (RXF 393) was 9.71 µM (inactive), the GI50 (M14) was 7.03 µM (inactive) and the GI50 (IGROV-1) was 19 µM (inactive). The GI50 (SF-295) was 38.1 µM (inactive), the GI50 (786-0) was 6.46 µM (inactive) and the GI50 (DU-145) was 20.5 µM (inactive). For the same compound, the GI50 (SF-268) was 47.3 µM (inactive), the GI50 (MCF7) was 10.5 µM (inactive) and the GI50 (KM12) was 27.9 µM (inactive). The GI50 (BT-549) was > 100 µM (inactive), the GI50 (OVCAR-8) was 14.1 µM (inactive) and the GI50 (HCT-15) was 7.18 µM. For the same compound, the GI50 (NCI-H522) was 13.3 µM (inactive), the GI50 (SW-620) was 8.09 µM (inactive) and the GI50 (SK-MEL-28) was 81.5 µM (inactive). The GI50 (SNB-19) was 30 µM (inactive), the GI50 (HCT-116) was 5 µM (inactive) and the GI50 (NCI/ADR-RES) was 44.2 µM (inactive). For the same compound, the GI50 (TK-10) was 13.2 µM (inactive), the GI50 (MDA-MB-435) was 10.5 µM (inactive) and the GI50 (HOP-62) was > 100 µM (inactive). The GI50 (HT-29) was 25.4 µM (inactive), the GI50 (T47D) was > 100 µM (inactive) and the GI50 (NCI-H226) was 9.86 µM (inactive).
